Measured values reported in ChEMBL document CHEMBL4359925, “Rational discovery of a highly novel and selective mTOR inhibitor” (Bioorg Med Chem Lett, 2019).

How the values were obtained:
[1] = molecular target: Serine/threonine-protein kinase mTOR (Homo sapiens, UniProt P42345); test: Inhibition of human mTOR measured after 30 mins in presence of ATP by Lanthascreen TR-FRET assay
[2] = molecular target: Phosphatidylinositol 4,5-bisphosphate 3-kinase catalytic subunit alpha isoform (Homo sapiens, UniProt P42336); test: Inhibition of PI3K alpha (unknown origin)
Chain of Phosphatidylinositol 4,5-bisphosphate 3-kinase catalytic subunit alpha isoform (P42336 whole entry, canonical isoform): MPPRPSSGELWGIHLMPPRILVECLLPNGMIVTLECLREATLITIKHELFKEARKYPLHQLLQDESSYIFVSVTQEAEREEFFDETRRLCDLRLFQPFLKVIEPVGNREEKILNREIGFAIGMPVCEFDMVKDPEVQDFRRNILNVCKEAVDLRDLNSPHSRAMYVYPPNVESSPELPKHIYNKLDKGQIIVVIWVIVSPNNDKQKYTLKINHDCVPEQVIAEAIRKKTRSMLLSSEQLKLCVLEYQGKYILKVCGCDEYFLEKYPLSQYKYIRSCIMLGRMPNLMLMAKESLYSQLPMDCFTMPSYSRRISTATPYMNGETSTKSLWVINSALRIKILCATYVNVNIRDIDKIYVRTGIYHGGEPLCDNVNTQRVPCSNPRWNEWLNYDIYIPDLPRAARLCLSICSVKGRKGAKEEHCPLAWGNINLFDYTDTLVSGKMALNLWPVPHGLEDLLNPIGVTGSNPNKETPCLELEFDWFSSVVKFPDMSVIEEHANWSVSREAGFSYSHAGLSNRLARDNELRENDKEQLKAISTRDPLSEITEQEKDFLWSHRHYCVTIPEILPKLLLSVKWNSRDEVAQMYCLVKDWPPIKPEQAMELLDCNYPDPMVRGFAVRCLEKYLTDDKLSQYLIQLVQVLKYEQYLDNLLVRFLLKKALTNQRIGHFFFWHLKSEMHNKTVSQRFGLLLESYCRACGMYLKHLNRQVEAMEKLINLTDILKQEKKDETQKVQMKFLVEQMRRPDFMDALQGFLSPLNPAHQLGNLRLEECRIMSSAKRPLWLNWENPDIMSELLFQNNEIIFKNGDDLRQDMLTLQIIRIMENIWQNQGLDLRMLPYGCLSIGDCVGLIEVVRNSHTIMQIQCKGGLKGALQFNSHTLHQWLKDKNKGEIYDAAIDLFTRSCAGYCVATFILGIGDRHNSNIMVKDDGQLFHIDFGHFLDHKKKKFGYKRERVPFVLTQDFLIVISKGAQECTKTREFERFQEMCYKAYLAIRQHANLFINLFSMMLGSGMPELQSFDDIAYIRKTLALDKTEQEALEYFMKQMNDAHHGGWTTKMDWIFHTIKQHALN

## CNC(=O)Nc1ccc(-c2ncc3c(n2)N2CCOCC2CO3)cc1 (configuration not stated)
[1]
  IC50: 0.501 µM
[2]
  IC50: 0.0501 µM
